According to patent US10765681B2 (Academia Sinica, priority 2016, dated 2020):

Columns and labels:
H1975 lung cancer cells = test: MTT assay, growth of H1975 lung cancer cells; format: cell-based; details: Homo sapiens, NCI-H1975; H1975 lung cancer cell line; MTT; Table 3; read-out: IC50 H1975
[1] = test system: MDA-MB231 breast cancer cells; test: MTT assay, growth of MDA-MB231 breast cancer cells; format: cell-based; details: Homo sapiens, MDA-MB-231, MDA-MB231 triple-negative breast cancer cell line, Table 3
Experimental: The inhibitory effect of the exemplary compounds against MDA-MB231 breast cancer cell and H1975 lung cancer cell was evaluated. The cytotoxic activity of test compounds was examined by performing a MTT assay.

Row | Structure (SMILES) | melting point | IC50 (H1975 lung cancer cells) [µM] | IC50 [1] [µM]
1 | CCOc1ccc(-c2nc(C(=N)NOC(=O)OCc3ccccc3)c3[nH]c(=O)n(-c4ccccc4OC)c3n2)cc1 [Compound 22a, 2-(4-Ethoxyphenyl)-9-(2-methoxyphenyl)-8-oxopurine-6-[N-(benzyloxycarbonyl)oxy]carboximidamide] | 246 to 248 °C | 3.1 | 3.9
2 | CCOc1ccc(-c2nc(C(=N)NOC(=O)Oc3ccccc3)c3[nH]c(=O)n(-c4ccccc4OC)c3n2)cc1 [Compound 22b, 2-(4-Ethoxyphenyl)-9-(2-methoxyphenyl)-8-oxopurine-6-[N-(phenoxycarbonyl)oxy]carboximidamide] | 209 to 211 °C | 3.1 | 3.9
3 | C=CCn1c(=O)n(-c2ccccc2OC)c2nc(-c3ccc(OCC)cc3)nc(C(=N)NOC(=O)Oc3ccccc3)c21 [Compound 23a, 7-Allyl-2-(4-ethoxyphenyl)-9-(2-methoxyphenyl)-8-oxopurine-6-[N-(phenoxycarbonyl)oxy]carboximidamide] | 83 to 85 °C | 51.1 | 48.1
4 | CCOc1ccc(-c2nc(-c3noc(C)n3)c3[nH]c(=O)n(-c4ccccc4OC)c3n2)cc1 [Compound 24a, 2-(4-Ethoxyphenyl)-9-(2-methoxyphenyl)-6-(5-methyl-1,2,4-oxadiazol-3-yl)purin-8-one] | 291 to 293 °C | 17 | 64
5 | CCOc1ccc(-c2nc(C(=O)O)c3nc(S)n(-c4ccccc4)c3n2)cc1 [Compound 29a, 2-(4-Ethoxyphenyl)-8-mercapto-9-phenylpurine-6-carboxylic acid] | 320 °C (dec.) | 43.6 | 91

Now from value to molecule:

Row | melting point | IC50 (H1975 lung cancer cells) [µM] | IC50 [1] [µM] | Structure (SMILES)
6 | 215 to 217 °C | 0.7 | 1.6 | CCOc1ccc(-c2nc(C#N)c3nc(Cl)n(-c4ccccc4OC)c3n2)cc1 [Compound 31a, 8-Chloro-2-(4-ethoxyphenyl)-9-(2-methoxyphenyl)purine-6-carbonitrile]
7 | 210 to 212 °C | 14.7 | 11.9 | CCOc1ccc(-c2nc(C#N)c3nc(N(C(C)=O)C(C)=O)n(-c4ccccc4OC)c3n2)cc1 [Compound 35a, N-Acetyl-N-[6-cyano-2-(4-ethoxyphenyl)-9-(2-methoxyphenyl)purin-8-yl]acetamide]
8 | 245 to 247 °C | 11.9 | 15.4 | CCOc1ccc(-c2nc(C(=N)NO)c3nc(N)n(-c4ccccc4OC)c3n2)cc1 [Compound 36a, 8-Amino-2-(4-ethoxyphenyl)-9-(2-methoxyphenyl)purine-6-(N-hydroxy)carboximidamide]
